Tests used:
[1] = biological target: T1, human PRS protein (Homo sapiens, UniProt P07814); assay: PRS inhibitory activity (ATP/[32P]pyrophosphate exchange enzyme reaction); format: biochemical; settings: 300 nM test compound; recombinant human PRS (EPRS 998-1512); read-out: inhibitory rate (%) of PRS
T1 construct: to construct His-Avi-hEPRS (998-1512) expression plasmid; His tag (N); Avi tag (N); TEV cleavage site (ENLYFQ/GS, encoded by forward primer hEPRS-TEV-NheF) (N); made in house; host or cells: E. coli BL21(DE3)
T1 sequence (P07814 998-1512): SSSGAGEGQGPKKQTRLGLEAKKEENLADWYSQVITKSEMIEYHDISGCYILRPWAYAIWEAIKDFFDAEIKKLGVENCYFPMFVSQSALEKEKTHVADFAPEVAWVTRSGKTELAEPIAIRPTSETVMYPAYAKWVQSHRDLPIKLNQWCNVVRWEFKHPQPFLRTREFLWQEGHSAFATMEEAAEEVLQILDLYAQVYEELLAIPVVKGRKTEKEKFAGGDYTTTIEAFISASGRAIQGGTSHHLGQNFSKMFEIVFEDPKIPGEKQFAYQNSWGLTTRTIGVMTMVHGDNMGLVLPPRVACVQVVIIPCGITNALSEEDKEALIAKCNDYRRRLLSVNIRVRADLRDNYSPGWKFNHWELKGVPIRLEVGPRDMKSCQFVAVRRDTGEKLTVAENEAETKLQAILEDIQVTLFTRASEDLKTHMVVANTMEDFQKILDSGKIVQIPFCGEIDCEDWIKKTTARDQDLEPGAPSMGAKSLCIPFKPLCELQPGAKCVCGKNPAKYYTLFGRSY
Outline: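 His-Avi-tagged human EPRS catalytic domain (998-1512), E. coli-expressed, was preincubated 60 min with compound (enzyme added as 40 nM solution) in Tris pH 7.5, KCl, DTT, Tween 20 and MgCl2. The substrate solution contained 300 μM ATP, 160 μM L-proline, and 400 μM pyrophosphate with [32P]pyrophosphate; reaction ran 30 min at room temperature. Charcoal-captured label was counted, with enzyme-free wells taken as 100% inhibition.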

[2] = tested on: human ovarian cancer cell A2780; assay: proliferation inhibitory activity against A2780 cells (CellTiter-Glo); format: cell-based; settings: A2780, 72 h, 1 μM test compound, 3 days of culture, read-out: proliferation inhibitory rate (%) of A2780 cells

Row | SMILES | inhibition at 0.3 µM [1] [%] | inhibition at 1 µM [2] [%]
1 | CCc1cc(N2CC[C@@](C#N)(C3CC3)C2=O)cc(NC(=O)Cc2cc(F)cc(-c3cnn(C)c3)c2)n1 [Example 99, N-(4-((3S)-3-cyano-3-cyclopropyl-2-oxopyrrolidin-1-yl)-6-ethylpyridin-2-yl)-2-(3-fluoro-5-(1-methyl-1H-pyrazol-4-yl)phenyl)acetamide] | 99 | 70
2 | CC(C)(O)CCn1cc(-c2cccc(CC(=O)Nc3cc(N4CC[C@@](C#N)(C5CC5)C4=O)ccn3)c2)cn1 [Example 100, N-(4-((3S)-3-cyano-3-cyclopropyl-2-oxopyrrolidin-1-yl)pyridin-2-yl)-2-(3-(1-(3-hydroxy-3-methylbutyl)-1H-pyrazol-4-yl)phenyl)acetamide] | 101 | 84

Now from value to compound, other results behind:

Row | inhibition at 0.3 µM [1] [%] | SMILES | inhibition at 1 µM [2] [%]
3 | 99 | CC(C)(O)Cn1cc(-c2cccc(CC(=O)Nc3cc(N4CC[C@@](C#N)(C5CC5)C4=O)ccn3)c2)cn1 [Example 101, N-(4-((3S)-3-cyano-3-cyclopropyl-2-oxopyrrolidin-1-yl)pyridin-2-yl)-2-(3-(1-(2-hydroxy-2-methylpropyl)-1H-pyrazol-4-yl)phenyl)acetamide] | 69
4 | 100 | Cc1cc(N2CC[C@@](C#N)(C3CC3)C2=O)cc(NC(=O)Cc2cccc(-c3cn(C)nc3C)c2)n1 [Example 102, N-(4-((3S)-3-cyano-3-cyclopropyl-2-oxopyrrolidin-1-yl)-6-methylpyridin-2-yl)-2-(3-(1,3-dimethyl-1H-pyrazol-4-yl)phenyl)acetamide] | 89
5 | 97 | Cc1cc(-c2cccc(CC(=O)Nc3cc(N4CC[C@@](C#N)(C5CC5)C4=O)cc(C)n3)c2)cnn1 [Example 103, N-(4-((3S)-3-cyano-3-cyclopropyl-2-oxopyrrolidin-1-yl)-6-methylpyridin-2-yl)-2-(3-(6-methylpyridazin-4-yl)phenyl)acetamide] | 67
6 | 98 | Cc1cc(N2CC[C@@](C#N)(C3CC3)C2=O)nc(NC(=O)Cc2cccc(-c3cnn(C)c3)c2)n1 [Example 132, N-(4-((3S)-3-cyano-3-cyclopropyl-2-oxopyrrolidin-1-yl)-6-methylpyrimidin-2-yl)-2-(3-(1-methyl-1H-pyrazol-4-yl)phenyl)acetamide] | 73

Reference: US10800754B2, “Heterocyclic amide compound” (TAKEDA PHARMACEUTICAL COMPANY LIMITED, priority 2016, dated 2020)
